Results published in article PMC5762315, “Inhibition of polo-like kinase 4 (PLK4): a new therapeutic option for rhabdoid tumors and pediatric medulloblastoma” (Oncotarget, 2017).
Values joined by “and” are separate entries in the source; they are usually repeats but may differ in a detail not shown here. Equal entries are not always repeated.

Columns and labels:
Assay in all cases: LanthaScreen Eu Kinase Binding Assay, panel of 486 biochemical kinase assays
[1] = biological target: various kinases (Homo sapiens, UniProt Q9UPZ9); conditions: ICK
Sequence of various kinases (Homo sapiens, UniProt Q9UPZ9) (Q9UPZ9 whole entry): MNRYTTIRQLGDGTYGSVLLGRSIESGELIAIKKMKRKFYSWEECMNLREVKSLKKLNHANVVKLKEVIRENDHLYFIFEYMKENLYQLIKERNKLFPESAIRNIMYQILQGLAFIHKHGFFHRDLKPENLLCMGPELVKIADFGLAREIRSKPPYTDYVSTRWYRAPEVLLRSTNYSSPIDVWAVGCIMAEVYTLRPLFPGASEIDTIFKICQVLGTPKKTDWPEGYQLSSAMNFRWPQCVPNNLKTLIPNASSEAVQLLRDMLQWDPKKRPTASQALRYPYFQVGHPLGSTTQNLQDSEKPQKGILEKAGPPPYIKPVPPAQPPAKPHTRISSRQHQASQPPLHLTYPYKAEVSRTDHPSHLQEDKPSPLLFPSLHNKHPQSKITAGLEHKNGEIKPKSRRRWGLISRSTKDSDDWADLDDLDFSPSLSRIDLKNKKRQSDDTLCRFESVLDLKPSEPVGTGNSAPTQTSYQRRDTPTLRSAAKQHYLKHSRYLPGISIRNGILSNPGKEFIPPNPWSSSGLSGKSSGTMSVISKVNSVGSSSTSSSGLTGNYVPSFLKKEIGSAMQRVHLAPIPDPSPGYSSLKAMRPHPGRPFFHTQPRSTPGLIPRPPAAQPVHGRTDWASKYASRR

[2] = biological target: T1, various kinases (Homo sapiens, UniProt P42680); conditions: kinase TEC; LanthaScreen Binding
T1 sequence (P42680 1-631): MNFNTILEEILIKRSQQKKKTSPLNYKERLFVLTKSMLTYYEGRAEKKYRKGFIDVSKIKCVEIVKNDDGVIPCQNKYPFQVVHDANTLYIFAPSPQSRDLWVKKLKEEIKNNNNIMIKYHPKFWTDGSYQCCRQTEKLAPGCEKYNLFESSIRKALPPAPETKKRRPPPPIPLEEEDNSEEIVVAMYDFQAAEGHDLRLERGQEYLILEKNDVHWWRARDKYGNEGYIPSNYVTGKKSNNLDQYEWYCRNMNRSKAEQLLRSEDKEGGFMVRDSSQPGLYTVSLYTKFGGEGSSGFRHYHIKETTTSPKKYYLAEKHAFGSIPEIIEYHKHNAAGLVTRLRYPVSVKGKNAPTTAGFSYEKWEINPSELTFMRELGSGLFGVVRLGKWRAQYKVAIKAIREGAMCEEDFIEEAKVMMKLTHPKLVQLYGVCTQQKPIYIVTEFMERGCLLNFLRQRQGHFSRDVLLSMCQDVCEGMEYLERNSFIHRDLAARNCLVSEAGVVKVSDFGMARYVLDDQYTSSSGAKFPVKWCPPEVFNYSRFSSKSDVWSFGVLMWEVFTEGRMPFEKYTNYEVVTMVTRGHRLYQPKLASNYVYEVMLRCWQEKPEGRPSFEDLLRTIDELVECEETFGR

[3] = biological target: various kinases (Homo sapiens, UniProt P27037); conditions: ACVR2A
Sequence of various kinases (Homo sapiens, UniProt P27037) (P27037 20-513): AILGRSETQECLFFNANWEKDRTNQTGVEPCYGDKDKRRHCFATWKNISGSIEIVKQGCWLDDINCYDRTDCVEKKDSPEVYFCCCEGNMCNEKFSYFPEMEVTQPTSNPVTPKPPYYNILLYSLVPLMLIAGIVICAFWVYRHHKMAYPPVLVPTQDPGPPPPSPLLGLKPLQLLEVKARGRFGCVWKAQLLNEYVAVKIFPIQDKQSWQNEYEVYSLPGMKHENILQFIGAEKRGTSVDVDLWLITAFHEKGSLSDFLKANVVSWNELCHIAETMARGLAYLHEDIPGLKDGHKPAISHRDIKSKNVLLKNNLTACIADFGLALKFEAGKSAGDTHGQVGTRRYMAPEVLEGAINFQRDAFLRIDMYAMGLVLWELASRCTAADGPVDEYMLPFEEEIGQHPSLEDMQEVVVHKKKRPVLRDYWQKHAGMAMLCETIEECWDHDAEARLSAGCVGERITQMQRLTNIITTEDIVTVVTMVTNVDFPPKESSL

[4] = biological target: T2, various kinases (Homo sapiens, UniProt Q9UKI8); conditions: kinase TLK1; LanthaScreen Binding
T2 sequence (Q9UKI8 1-766): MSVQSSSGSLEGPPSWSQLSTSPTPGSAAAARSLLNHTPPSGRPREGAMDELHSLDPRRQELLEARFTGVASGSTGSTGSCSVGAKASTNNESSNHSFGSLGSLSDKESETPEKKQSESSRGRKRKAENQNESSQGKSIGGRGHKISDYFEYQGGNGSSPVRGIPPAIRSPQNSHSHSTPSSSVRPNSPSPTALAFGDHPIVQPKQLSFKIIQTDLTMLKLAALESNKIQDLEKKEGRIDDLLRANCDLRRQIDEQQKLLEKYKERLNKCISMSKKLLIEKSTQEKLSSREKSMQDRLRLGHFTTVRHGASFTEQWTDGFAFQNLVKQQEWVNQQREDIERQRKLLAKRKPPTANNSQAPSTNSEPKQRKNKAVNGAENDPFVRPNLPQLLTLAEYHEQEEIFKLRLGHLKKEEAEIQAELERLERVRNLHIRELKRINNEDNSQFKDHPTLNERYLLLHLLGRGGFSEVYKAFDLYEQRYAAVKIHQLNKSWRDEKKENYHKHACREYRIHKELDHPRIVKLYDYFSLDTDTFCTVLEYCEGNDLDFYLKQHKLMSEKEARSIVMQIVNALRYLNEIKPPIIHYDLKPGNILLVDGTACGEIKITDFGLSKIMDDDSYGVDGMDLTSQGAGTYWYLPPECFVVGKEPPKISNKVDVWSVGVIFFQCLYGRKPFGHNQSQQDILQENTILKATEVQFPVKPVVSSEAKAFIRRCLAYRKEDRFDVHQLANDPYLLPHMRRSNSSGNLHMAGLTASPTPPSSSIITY

[5] = biological target: various kinases (Homo sapiens, UniProt Q9UM73, C1156Y); conditions: ALK C1156Y
Sequence of various kinases (Homo sapiens, UniProt Q9UM73, C1156Y) (Q9UM73 19-1620 C1156Y): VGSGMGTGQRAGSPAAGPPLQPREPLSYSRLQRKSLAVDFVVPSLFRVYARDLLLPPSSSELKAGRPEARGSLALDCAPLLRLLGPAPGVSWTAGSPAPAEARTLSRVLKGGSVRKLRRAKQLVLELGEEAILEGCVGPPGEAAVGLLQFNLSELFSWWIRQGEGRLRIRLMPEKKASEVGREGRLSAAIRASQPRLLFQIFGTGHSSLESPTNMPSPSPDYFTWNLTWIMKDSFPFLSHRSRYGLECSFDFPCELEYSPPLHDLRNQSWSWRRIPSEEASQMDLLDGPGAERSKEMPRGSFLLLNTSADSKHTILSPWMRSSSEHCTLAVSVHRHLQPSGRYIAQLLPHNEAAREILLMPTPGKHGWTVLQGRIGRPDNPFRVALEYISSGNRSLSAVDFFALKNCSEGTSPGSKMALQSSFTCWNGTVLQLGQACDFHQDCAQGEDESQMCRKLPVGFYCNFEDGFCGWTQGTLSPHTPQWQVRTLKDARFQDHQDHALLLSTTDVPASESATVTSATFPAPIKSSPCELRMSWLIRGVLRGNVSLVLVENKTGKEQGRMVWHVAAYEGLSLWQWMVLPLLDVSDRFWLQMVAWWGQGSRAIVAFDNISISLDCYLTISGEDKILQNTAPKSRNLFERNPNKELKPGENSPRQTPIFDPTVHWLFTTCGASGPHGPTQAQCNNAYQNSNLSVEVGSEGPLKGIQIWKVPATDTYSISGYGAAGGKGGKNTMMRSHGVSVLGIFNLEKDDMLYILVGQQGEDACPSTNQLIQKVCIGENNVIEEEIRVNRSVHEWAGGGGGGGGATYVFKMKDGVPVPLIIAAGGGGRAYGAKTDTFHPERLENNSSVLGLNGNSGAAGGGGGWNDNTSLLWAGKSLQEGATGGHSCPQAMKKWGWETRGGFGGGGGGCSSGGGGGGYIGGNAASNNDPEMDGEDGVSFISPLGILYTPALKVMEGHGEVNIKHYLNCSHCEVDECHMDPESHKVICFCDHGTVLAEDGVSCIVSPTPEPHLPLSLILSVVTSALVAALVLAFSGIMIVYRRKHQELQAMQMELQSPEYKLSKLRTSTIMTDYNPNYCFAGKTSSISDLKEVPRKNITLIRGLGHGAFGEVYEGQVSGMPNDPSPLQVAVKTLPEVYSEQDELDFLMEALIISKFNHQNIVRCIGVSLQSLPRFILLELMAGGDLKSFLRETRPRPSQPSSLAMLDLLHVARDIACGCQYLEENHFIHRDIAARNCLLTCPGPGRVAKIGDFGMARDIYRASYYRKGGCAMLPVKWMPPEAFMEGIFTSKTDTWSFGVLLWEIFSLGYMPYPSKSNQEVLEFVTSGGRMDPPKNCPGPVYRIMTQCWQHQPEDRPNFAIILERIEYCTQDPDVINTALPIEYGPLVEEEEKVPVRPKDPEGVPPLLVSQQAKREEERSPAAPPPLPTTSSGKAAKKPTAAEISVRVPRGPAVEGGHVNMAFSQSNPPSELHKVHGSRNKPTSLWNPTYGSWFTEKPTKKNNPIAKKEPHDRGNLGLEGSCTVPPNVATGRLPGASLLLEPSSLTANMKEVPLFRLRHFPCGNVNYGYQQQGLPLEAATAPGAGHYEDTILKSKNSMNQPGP

[6] = biological target: T3, various kinases (Homo sapiens, UniProt Q7L7X3); conditions: kinase TAOK1; LanthaScreen Binding
T3 sequence (Q7L7X3 1-1001): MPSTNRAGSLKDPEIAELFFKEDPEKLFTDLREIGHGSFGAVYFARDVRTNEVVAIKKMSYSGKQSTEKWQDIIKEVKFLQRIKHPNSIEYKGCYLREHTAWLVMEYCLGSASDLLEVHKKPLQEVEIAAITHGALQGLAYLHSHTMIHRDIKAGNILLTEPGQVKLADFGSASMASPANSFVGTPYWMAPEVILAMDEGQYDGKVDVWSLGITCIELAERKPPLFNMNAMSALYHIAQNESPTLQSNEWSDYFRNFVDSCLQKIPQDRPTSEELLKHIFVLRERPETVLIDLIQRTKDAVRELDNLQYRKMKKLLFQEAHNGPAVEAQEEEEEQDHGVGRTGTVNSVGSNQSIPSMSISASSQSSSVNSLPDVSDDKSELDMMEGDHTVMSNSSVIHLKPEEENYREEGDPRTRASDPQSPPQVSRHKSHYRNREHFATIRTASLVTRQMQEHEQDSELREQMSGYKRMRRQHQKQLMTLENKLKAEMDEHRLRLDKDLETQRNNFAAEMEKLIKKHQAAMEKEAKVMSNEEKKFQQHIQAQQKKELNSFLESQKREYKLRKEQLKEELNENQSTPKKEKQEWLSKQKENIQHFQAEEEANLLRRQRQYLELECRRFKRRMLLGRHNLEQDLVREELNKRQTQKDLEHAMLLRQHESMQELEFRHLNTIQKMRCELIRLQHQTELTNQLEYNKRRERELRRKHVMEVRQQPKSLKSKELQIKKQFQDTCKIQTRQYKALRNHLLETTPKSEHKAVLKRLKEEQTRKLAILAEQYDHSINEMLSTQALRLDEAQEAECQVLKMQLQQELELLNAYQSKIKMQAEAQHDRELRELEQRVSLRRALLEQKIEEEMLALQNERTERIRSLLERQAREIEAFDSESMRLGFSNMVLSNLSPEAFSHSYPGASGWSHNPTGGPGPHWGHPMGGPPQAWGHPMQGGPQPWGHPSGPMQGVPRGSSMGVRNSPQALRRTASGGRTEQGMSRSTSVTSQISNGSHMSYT

[7] = system: various kinases
[8] = biological target: various kinases (Homo sapiens, UniProt Q9UM73, R1275Q); conditions: ALK R1275Q
Sequence of various kinases (Homo sapiens, UniProt Q9UM73, R1275Q) (Q9UM73 19-1620 R1275Q): as the sequence (Q9UM73 19-1620 C1156Y) above, with Y1138C, R1257Q counted along it

[9] = biological target: various kinases (Homo sapiens, UniProt P19525); conditions: EIF2AK2 (PKR)
Sequence of various kinases (Homo sapiens, UniProt P19525) (P19525 whole entry): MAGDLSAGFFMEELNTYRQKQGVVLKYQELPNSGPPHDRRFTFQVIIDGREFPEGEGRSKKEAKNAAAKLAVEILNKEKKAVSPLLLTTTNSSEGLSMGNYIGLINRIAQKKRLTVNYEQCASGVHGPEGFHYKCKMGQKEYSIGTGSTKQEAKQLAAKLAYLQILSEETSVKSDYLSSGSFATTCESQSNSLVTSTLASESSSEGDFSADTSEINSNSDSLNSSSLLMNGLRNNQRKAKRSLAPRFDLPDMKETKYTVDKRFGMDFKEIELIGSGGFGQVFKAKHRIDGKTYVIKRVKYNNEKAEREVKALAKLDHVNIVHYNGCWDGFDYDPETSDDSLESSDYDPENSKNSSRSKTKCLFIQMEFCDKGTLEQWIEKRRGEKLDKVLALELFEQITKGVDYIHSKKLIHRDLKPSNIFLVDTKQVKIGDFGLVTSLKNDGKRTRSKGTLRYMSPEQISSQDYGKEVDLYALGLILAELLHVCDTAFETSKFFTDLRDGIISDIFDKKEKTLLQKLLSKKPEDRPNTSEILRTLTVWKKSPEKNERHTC

## COc1ccc2c(c1)[C@]1(C[C@H]1c1ccc3c(/C=C/c4ccc(CN5C[C@@H](C)O[C@@H](C)C5)cc4)n[nH]c3c1)C(=O)N2 [CFI-400945]
[1]
  % Inhibition: 8% and 5%
[2]
  % Inhibition Average: -1%
  % Inhibition Duplicate #1: 1%
  % Inhibition Duplicate #2: -3%
[3]
  % Inhibition: 18% and 15%
[4]
  % Inhibition Average: 0%
  % Inhibition Duplicate #1: -1%
  % Inhibition Duplicate #2: 0%
[5]
  % Inhibition: 47% and 51%
[6]
  % Inhibition Average: 14%
  % Inhibition Duplicate #1: 15%
  % Inhibition Duplicate #2: 13%
[7]; ALK T1151_L1152insT
  % Inhibition: 31% and 35%
[7]; EGFR (ErbB1) d747-749 A750P
  % Inhibition: 12% and 23%
[7]; FLT3 ITD
  % Inhibition: 45% and 41%
[7]; MAP3K7/MAP3K7IP1 (TAK1-TAB1)
  % Inhibition: 8%
[8]
  % Inhibition: 65%
  IC50: 444 nM
[9]
  % Inhibition: 3% and -4%
